Reference: patent US20050250801A1, “Method of treating cancer with azaspirane compositions” (priority 2003, published 2005)
Where two headings read alike, the source gives them in different places.

Columns and labels:
U251 = test: NCI in vitro SRB assay, CNS Cancer; format: cell-based; conditions: for CC50 / GI50: Homo sapiens; for GI50: U-251
Protocol: (§1) An in vitro assay which tested the ability of N,N,-diethyl-8,8-dipropyl-2-azaspiro[4,5]decane-2-propanamine dimaleate (Compound 1) to inhibit the growth of known cancer cell lines was performed by the National Cancer Institute in accordance with standard procedures. See: Lin, Z. X., Hoult, J. R., and Raman, A. Sulphorhodamine B assay for measuring proliferation of a pigmented melanocyte cell line and its application to the evaluation of crude drugs used in the treatment of vitiligo. J Ethnopharmacol. 66: 141-150, 1999. Briefly, selected tumor cell lines were cultured in media containing five different concentrations of Compound 1. After 48 hours of continuous exposure, a sulforhodamine B (SRB) assay was used to estimate cell viability or growth via optical measurements.
(§2) From the measurements, the following values were determined: 1) the concentration of Compound 1 at which a tumor cell growth inhibition of 50% (relative to control) occurs (GI50), 2) the concentration of Compound 1 at which no growth occurs (total growth inhibition, TGI), and 3) the concentration of Compound 1 at which the […] (LC 50). […] FIG. 6 illustrates, graphically, tumor cell growth as a function of Compound 1 concentration of the scanned tumor cell lines.

SF-295 = test: NCI in vitro SRB assay, CNS Cancer; format: cell-based; conditions: for CC50 / GI50: Homo sapiens
Protocol: as §1, §2

SF-539 = test: NCI in vitro SRB assay, CNS Cancer; format: cell-based; conditions: for GI50: Homo sapiens
Protocol: as §1, §2

SF-268 = test: NCI in vitro SRB assay, CNS Cancer; format: cell-based; conditions: for CC50 / GI50: Homo sapiens
Protocol: as §1, §2

NCI/ADR-RES = test: NCI in vitro SRB assay, Breast Cancer; format: cell-based; conditions: for GI50: Homo sapiens
Protocol: as §1, §2

MCF7 = test: NCI in vitro SRB assay, Breast Cancer; format: cell-based; conditions: for CC50 / GI50: Homo sapiens
Protocol: as §1, §2

BT-549 = test: NCI in vitro SRB assay, Breast Cancer; format: cell-based
Protocol: as §1, §2

T84 cells = test: Induction of apoptosis, DNA fragmentation analysis, T84; format: cell-based, human; conditions: 12 hours treatment
Protocol: T84, CaCo-2 and HUVEC cells, respectively, were grown in 100 mm dishes for 7-9 days, culture media for HUVEC was EGM-2 (Clonetics, BioWhitaker Co.), until they reached semi-confluency. Cell monolayers were then treated for 12 hours (CaCo-2 and T84) and 16 hours (HUVEC), respectively, at the indicated concentrations of N,N,-diethyl-8,8-dipropyl-2-azaspiro[4,5]decane-2-propanamine dimaleate (Compound 1) in culture media. Cells were collected by trypsinization and the apoptotic DNA was isolated from these cells following the instructions of the DNA fragmentation analysis kit (Boehringer Mannheim Corp., Indianapolis, Ind.). The apoptotic DNA was evaluated using 1.5% agarose gel electrophoresis followed by staining with ethidium bromide. M denotes the lane containing molecular weight markers of DNA.

[1] = SF-295, Log10 conc -4.0 Moles/L
[2] = SF-295, Log10 conc -5.0 Moles/L
[3] = SF-295, Log10 conc -6.0 Moles/L
[4] = SF-295, Log10 conc -7.0 Moles/L
[5] = SF-295, Log10 conc -8.0 Moles/L
[6] = read-out: Log10 GI50 (converted)
[7] = SF-268, Log10 conc -4.0 Moles/L
[8] = SF-268, Log10 conc -5.0 Moles/L
[9] = SF-268, Log10 conc -6.0 Moles/L
[10] = SF-268, Log10 conc -7.0 Moles/L
[11] = SF-268, Log10 conc -8.0 Moles/L
[12] = BT-549, Log10 conc -4.0 Moles/L
[13] = BT-549, Log10 conc -5.0 Moles/L
[14] = BT-549, Log10 conc -6.0 Moles/L
[15] = BT-549, Log10 conc -7.0 Moles/L
[16] = BT-549, Log10 conc -8.0 Moles/L

CCCC1(CCC)CCC2(CCN(CCCN(CC)CC)C2)CC1.O=C(O)/C=C\C(=O)O.O=C(O)/C=C\C(=O)O [Compound 1, N,N,-diethyl-8,8-dipropyl-2-azaspiro[4,5]decane-2-propanamine dimaleate]
CC50 (U251; U-251, read-out: LC50): 4.69 µM | CC50 (U251; U-251, read-out: Log10 LC50 (converted)): 4.68 µM | GI50 (U251; U251, read-out: GI50): 1030 nM | GI50 (U251; U251, read-out: Log10 GI50 (converted)): 1020 nM | Log10 TGI (U251; U251): −5.66 | TGI (U251; U251): 2.2 µM | Mean Optical Densities (U251; U251, Log10 conc -4.0 Moles/L): −0.042 | Percent Growth (U251; U251, Log10 conc -4.0 Moles/L): −100% | Mean Optical Densities (U251; U251, Log10 conc -5.0 Moles/L): −0.049 | Percent Growth (U251; U251, Log10 conc -5.0 Moles/L): −100% | Mean Optical Densities (U251; U251, Log10 conc -6.0 Moles/L): 0.602 | Percent Growth (U251; U251, Log10 conc -6.0 Moles/L): 52% | Mean Optical Densities (U251; U251, Log10 conc -7.0 Moles/L): 0.864 | Percent Growth (U251; U251, Log10 conc -7.0 Moles/L): 88% | Mean Optical Densities (U251; U251, Log10 conc -8.0 Moles/L): 0.885 | Percent Growth (U251; U251, Log10 conc -8.0 Moles/L): 90% | CC50 (SF-295; SF-295, read-out: LC50): 8.21 µM | CC50 (SF-295; SF-295, read-out: Log10 LC50 (converted)): 8.13 µM | GI50 (SF-295; SF-295, read-out: GI50): 1930 nM | GI50 (SF-295; SF-295, read-out: Log10 GI50 (converted)): 1950 nM | Log10 TGI (SF-295; SF-295): −5.40 | TGI (SF-295; SF-295): 3.98 µM | Mean Optical Densities (SF-295; [1]): 0.239 | Percent Growth (SF-295; [1]): −57% | Mean Optical Densities (SF-295; [2]): 0.202 | Percent Growth (SF-295; [2]): −64% | Mean Optical Densities (SF-295; [3]): 1.520 | Percent Growth (SF-295; [3]): 96% | Mean Optical Densities (SF-295; [4]): 1.653 | Percent Growth (SF-295; [4]): 109% | Mean Optical Densities (SF-295; [5]): 1.614 | Percent Growth (SF-295; [5]): 105% | Log10 TGI (SF-539): −5.50 | TGI (SF-539): 3.13 µM | GI50 (SF-539; read-out: GI50): 1570 nM | GI50 (SF-539; [6]): 1580 nM | Mean Optical Densities (SF-539; Log10 conc -4.0 Moles/L): 0.033 | Percent Growth (SF-539; Log10 conc -4.0 Moles/L): −89% | Mean Optical Densities (SF-539; Log10 conc -5.0 Moles/L): 0.050 | Percent Growth (SF-539; Log10 conc -5.0 Moles/L): −84% | Mean Optical Densities (SF-539; Log10 conc -6.0 Moles/L): 0.559 | Percent Growth (SF-539; Log10 conc -6.0 Moles/L): 83% | Mean Optical Densities (SF-539; Log10 conc -7.0 Moles/L): 0.612 | Percent Growth (SF-539; Log10 conc -7.0 Moles/L): 100% | Mean Optical Densities (SF-539; Log10 conc -8.0 Moles/L): 0.591 | Percent Growth (SF-539; Log10 conc -8.0 Moles/L): 93% | CC50 (SF-268; SF-268, read-out: LC50): 5.8 µM | CC50 (SF-268; SF-268, read-out: Log10 LC50 (converted)): 5.75 µM | GI50 (SF-268; SF-268, read-out: GI50): 1430 nM | GI50 (SF-268; SF-268, read-out: Log10 GI50 (converted)): 1450 nM | Log10 TGI (SF-268; SF-268): −5.54 | TGI (SF-268; SF-268): 2.88 µM | Mean Optical Densities (SF-268; [7]): 0.058 | Percent Growth (SF-268; [7]): −80% | Mean Optical Densities (SF-268; [8]): 0.033 | Percent Growth (SF-268; [8]): −89% | Mean Optical Densities (SF-268; [9]): 1.004 | Percent Growth (SF-268; [9]): 75% | Mean Optical Densities (SF-268; [10]): 1.181 | Percent Growth (SF-268; [10]): 94% | Mean Optical Densities (SF-268; [11]): 1.193 | Percent Growth (SF-268; [11]): 95% | Log10 TGI (NCI/ADR-RES): −5.40 | TGI (NCI/ADR-RES): 3.95 µM | GI50 (NCI/ADR-RES; read-out: GI50): 1830 nM | GI50 (NCI/ADR-RES; [6]): 1820 nM | Mean Optical Densities (NCI/ADR-RES; Log10 conc -4.0 Moles/L): 0.081 | Percent Growth (NCI/ADR-RES; Log10 conc -4.0 Moles/L): −85% | Mean Optical Densities (NCI/ADR-RES; Log10 conc -5.0 Moles/L): 0.208 | Percent Growth (NCI/ADR-RES; Log10 conc -5.0 Moles/L): −61% | Mean Optical Densities (NCI/ADR-RES; Log10 conc -6.0 Moles/L): 1.220 | Percent Growth (NCI/ADR-RES; Log10 conc -6.0 Moles/L): 89% | Mean Optical Densities (NCI/ADR-RES; Log10 conc -7.0 Moles/L): 1.227 | Percent Growth (NCI/ADR-RES; Log10 conc -7.0 Moles/L): 90% | Mean Optical Densities (NCI/ADR-RES; Log10 conc -8.0 Moles/L): 1.254 | Percent Growth (NCI/ADR-RES; Log10 conc -8.0 Moles/L): 94% | CC50 (MCF7; MCF7, read-out: LC50): 5.6 µM | CC50 (MCF7; MCF7, read-out: Log10 LC50 (converted)): 5.62 µM | GI50 (MCF7; MCF7, read-out: GI50): 1330 nM | GI50 (MCF7; MCF7, read-out: Log10 GI50 (converted)): 1320 nM | Log10 TGI (MCF7; MCF7): −5.56 | TGI (MCF7; MCF7): 2.73 µM | Mean Optical Densities (MCF7; MCF7, Log10 conc -4.0 Moles/L): 0.051 | Percent Growth (MCF7; MCF7, Log10 conc -4.0 Moles/L): −70% | Mean Optical Densities (MCF7; MCF7, Log10 conc -5.0 Moles/L): 0.017 | Percent Growth (MCF7; MCF7, Log10 conc -5.0 Moles/L): −90% | Mean Optical Densities (MCF7; MCF7, Log10 conc -6.0 Moles/L): 0.996 | Percent Growth (MCF7; MCF7, Log10 conc -6.0 Moles/L): 70% | Mean Optical Densities (MCF7; MCF7, Log10 conc -7.0 Moles/L): 1.339 | Percent Growth (MCF7; MCF7, Log10 conc -7.0 Moles/L): 99% | Mean Optical Densities (MCF7; MCF7, Log10 conc -8.0 Moles/L): 1.311 | Percent Growth (MCF7; MCF7, Log10 conc -8.0 Moles/L): 96% | TGI (BT-549; BT-549): 3.23 µM | Log10 TGI (BT-549; BT-549 (so in the source)): −5.39 | Mean Optical Densities (BT-549; [12]): 0.007 | Percent Growth (BT-549; [12]): −98% | Mean Optical Densities (BT-549; [13]): 0.027 | Percent Growth (BT-549; [13]): −94% | Mean Optical Densities (BT-549; [14]): 0.856 | Percent Growth (BT-549; [14]): 98% | Mean Optical Densities (BT-549; [15]): 0.904 | Percent Growth (BT-549; [15]): 109% | Mean Optical Densities (BT-549; [16]): 0.859 | Percent Growth (BT-549; [16]): 98% | CC50 (BT-549; Homo sapiens, BT-549, read-out: LC50): 5.89 µM | GI50 (BT-549; Homo sapiens, BT-549, read-out: GI50): 1770 nM | GI50 (BT-549; Homo sapiens, BT-549 (so in the source), read-out: Log10 GI50 (converted)): 1700 nM | DNA ladder formation (apoptosis) (T84 cells): formation of DNA laddering in a dose-dependent manner
